In the experiment the test system is plaque biofilm grown from fresh pooled human saliva. Put plainly: in vitro plaque glycolysis model (iPGRM): acid production and acid inhibition. Format: cell-based, plaque microorganisms from human saliva. The following applies: TABLE 2, 3-day biofilm. On the procedure: Acid production and acid inhibition were determined with the in vitro plaque glycolysis model (iPGRM). The purpose of this technique is to provide a simple and quick method for determining if compounds have an influence on the metabolic pathways that plaque microorganisms utilize to produce toxins that adversely affect gingival health. It is also useful to determine if compounds have an influence on the metabolic pathways that plaque microorganisms utilize to produce plaque acids that adversely affect teeth.
The in vitro plaque glycolysis model (iPGRM) is a technique in which plaque is grown from human saliva and treated with various agents to determine anti-glycolytic activity of treatments. When bacteria convert sugar into energy with the help of enzymes, acids are formed. These acids demineralize and damage the dental enamel. […]
[…] The pH of the media solutions was then measured to determine the amount of glycolysis inhibition relative to a negative control.
On Day 1, new glass rods (5 mm×90 mm) were polished approximately 25 mm from the un-tapered end on a lathe with silicon carbide paper of 240, 320, 400, and 600 grit used sequentially. […] After polishing, rods were stored until ready to run test. […]

With `[H]/N=C(\N/C(=N/[H])NCCCCCCNC(=N)NC(=N)Nc1ccc(Cl)cc1)Nc1ccc(Cl)cc1` [1% Chlorhexidine, Chlorhexidine], the “Acid Production (ΔpH) Mean” value (2 min treatment with dentifrice slurry or diluted treatment in water (1:5), ΔpH vs blank vials) was 0.30 ΔpH. Moreover, the “Mean Acid Inhibition (%) Mean” value (relative to negative control Crest Cavity Protection) is reported as 80.77%.
